{
  "source": "ChEMBL document CHEMBL5360607",
  "about": "“The Hitchhiker's Guide to Deep Learning Driven Generative Chemistry” (ACS Med Chem Lett, 2023)",
  "key": {"[1]": {"biological_target": "Tyrosine-protein kinase JAK2 (Homo sapiens) (UniProt O60674)", "sequence (O60674 whole entry)": "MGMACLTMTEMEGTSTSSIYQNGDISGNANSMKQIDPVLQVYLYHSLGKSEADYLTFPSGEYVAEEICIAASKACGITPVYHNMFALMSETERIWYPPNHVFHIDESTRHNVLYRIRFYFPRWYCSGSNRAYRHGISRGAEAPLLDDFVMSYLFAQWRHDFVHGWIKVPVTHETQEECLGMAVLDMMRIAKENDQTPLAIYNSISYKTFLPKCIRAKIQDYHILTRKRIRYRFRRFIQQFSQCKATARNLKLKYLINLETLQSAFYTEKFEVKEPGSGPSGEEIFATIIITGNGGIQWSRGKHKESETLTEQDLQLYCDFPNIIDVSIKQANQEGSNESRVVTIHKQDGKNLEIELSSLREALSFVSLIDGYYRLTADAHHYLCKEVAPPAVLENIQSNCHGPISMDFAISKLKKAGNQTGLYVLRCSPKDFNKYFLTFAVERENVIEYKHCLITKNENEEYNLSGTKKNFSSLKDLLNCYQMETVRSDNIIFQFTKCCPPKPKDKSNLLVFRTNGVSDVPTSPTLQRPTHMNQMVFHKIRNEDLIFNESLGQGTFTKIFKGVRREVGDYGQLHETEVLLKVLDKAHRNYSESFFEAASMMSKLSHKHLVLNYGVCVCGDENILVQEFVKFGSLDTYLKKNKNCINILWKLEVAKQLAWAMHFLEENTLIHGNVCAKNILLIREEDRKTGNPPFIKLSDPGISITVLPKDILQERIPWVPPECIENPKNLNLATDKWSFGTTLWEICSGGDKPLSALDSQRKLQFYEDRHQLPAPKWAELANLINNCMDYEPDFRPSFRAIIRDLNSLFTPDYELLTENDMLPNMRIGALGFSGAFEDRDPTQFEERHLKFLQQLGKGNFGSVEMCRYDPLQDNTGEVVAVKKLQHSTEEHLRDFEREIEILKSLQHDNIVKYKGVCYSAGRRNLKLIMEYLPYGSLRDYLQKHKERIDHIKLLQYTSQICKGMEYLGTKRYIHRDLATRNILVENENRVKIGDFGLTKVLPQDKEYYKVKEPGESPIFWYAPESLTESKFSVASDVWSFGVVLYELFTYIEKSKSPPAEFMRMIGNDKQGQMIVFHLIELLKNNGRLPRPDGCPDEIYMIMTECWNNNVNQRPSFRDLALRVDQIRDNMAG", "test": "Inhibition of JAK2 (unknown origin) at 1 uM relative to control"}, "[2]": {"biological_target": "Tyrosine-protein kinase BTK (Homo sapiens, UniProt Q06187)", "test": "Inhibition of BTK (unknown origin)"}, "Adenosine receptor A1": {"biological_target": "T1, Adenosine receptor A1 (Homo sapiens, UniProt P30542)", "T1 sequence (P30542 whole entry)": "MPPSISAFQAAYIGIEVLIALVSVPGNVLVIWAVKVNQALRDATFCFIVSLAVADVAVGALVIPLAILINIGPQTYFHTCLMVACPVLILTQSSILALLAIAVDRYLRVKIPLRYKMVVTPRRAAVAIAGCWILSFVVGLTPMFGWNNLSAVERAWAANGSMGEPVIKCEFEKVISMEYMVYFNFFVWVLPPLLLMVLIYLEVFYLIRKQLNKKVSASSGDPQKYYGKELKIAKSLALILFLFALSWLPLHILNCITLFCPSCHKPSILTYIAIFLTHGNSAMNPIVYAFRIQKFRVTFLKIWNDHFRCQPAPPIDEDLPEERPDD", "test": "Binding affinity to adenosine receptor A1 (unknown origin) assessed as inhibition constant"}, "Adenosine receptor A2a": {"biological_target": "Adenosine receptor A2a (Homo sapiens, UniProt P29274)", "sequence (P29274 whole entry)": "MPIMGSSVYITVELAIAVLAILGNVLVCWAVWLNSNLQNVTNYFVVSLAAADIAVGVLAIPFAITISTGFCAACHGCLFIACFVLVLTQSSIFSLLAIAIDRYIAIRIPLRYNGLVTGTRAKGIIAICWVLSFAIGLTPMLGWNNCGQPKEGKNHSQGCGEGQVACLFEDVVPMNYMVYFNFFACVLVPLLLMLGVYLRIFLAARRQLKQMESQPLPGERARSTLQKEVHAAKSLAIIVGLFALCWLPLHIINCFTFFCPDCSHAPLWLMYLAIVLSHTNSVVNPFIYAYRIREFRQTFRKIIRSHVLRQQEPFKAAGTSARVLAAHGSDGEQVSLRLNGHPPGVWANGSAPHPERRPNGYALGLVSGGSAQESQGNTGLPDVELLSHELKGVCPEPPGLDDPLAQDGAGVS", "test": "Binding affinity to adenosine receptor A2a (unknown origin) assessed as inhibition constant"}, "[3]": {"biological_target": "Serine/threonine-protein kinase B-raf (Homo sapiens, UniProt P15056)", "sequence (P15056 whole entry)": "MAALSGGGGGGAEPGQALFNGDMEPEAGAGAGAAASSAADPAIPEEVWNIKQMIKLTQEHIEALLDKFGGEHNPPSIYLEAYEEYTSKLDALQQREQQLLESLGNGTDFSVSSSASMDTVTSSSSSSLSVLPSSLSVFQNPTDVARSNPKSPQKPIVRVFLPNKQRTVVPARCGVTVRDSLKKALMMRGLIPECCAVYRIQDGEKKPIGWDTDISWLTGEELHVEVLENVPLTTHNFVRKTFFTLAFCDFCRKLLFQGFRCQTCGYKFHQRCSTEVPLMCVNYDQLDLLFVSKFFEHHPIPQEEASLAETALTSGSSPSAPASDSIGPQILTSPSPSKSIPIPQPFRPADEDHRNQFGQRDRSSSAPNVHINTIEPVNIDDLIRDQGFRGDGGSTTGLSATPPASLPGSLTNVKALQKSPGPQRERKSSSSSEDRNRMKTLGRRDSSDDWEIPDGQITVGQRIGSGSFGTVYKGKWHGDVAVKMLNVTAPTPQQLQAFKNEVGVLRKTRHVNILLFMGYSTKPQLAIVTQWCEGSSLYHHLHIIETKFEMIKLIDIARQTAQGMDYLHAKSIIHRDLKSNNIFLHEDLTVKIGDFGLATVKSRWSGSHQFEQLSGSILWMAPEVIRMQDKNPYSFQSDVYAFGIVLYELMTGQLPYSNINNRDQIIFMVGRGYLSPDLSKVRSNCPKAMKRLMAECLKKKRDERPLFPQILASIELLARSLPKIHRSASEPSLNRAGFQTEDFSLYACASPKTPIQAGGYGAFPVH", "test": "Inhibition of BRAF (unknown origin)"}, "[4]": {"biological_target": "Fibroblast growth factor receptor 2 (Homo sapiens, UniProt P21802)", "sequence (P21802 whole entry)": "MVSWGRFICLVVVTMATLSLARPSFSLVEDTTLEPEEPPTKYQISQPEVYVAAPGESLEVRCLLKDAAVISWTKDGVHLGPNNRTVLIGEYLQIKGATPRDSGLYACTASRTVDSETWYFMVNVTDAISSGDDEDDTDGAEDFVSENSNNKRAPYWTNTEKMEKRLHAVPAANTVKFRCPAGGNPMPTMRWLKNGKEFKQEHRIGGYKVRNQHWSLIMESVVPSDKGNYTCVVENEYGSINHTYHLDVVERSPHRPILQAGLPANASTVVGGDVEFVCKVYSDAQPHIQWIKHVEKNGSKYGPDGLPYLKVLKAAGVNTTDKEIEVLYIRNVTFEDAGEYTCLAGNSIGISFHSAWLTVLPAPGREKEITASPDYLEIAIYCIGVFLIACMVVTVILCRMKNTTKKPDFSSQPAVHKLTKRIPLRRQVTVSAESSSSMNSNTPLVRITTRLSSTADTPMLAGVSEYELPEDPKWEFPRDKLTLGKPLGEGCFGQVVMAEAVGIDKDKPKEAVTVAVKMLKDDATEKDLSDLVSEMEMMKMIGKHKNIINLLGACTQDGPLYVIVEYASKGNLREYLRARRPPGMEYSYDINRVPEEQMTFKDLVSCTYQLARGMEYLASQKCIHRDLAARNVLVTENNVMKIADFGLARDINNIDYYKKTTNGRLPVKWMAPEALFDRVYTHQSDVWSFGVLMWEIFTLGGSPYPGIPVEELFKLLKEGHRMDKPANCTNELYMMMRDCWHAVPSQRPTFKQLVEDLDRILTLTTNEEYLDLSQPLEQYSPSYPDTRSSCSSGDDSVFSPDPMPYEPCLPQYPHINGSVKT", "test": "Inhibition of FGFR2 (unknown origin)"}, "[5]": {"biological_target": "Fibroblast growth factor receptor 1 (Homo sapiens, UniProt P11362)", "test": "Inhibition of FGFR1 (unknown origin)"}, "[6]": {"biological_target": "Fibroblast growth factor receptor 4 (Homo sapiens, UniProt P22455)", "sequence (P22455 whole entry)": "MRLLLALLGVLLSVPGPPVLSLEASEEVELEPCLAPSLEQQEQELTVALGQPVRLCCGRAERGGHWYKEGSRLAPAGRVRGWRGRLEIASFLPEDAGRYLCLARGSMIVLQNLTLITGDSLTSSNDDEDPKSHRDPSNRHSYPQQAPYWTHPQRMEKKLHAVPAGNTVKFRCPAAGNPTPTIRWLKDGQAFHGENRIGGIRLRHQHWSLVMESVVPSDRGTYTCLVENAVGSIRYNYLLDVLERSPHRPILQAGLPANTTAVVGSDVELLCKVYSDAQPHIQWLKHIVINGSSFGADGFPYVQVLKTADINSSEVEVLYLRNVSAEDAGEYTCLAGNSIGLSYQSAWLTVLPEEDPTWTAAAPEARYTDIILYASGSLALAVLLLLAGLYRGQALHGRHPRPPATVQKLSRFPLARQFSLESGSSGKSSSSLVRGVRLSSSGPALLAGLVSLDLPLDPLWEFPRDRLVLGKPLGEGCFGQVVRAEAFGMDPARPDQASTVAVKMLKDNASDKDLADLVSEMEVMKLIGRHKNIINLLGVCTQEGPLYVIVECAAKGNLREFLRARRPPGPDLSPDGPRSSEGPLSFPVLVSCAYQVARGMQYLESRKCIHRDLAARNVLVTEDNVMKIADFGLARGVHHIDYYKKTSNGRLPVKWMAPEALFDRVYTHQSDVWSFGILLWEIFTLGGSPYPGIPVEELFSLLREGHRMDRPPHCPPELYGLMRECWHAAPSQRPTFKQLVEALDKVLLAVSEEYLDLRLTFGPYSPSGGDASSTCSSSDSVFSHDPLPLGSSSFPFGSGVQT", "test": "Inhibition of FGFR4 (unknown origin)"}, "[7]": {"biological_target": "Fibroblast growth factor receptor 3 (Homo sapiens, UniProt P22607)", "test": "Inhibition of FGFR3 (unknown origin)"}, "[8]": {"biological_target": "T2, High affinity nerve growth factor receptor (Homo sapiens, UniProt P04629)", "test": "Inhibition of TRKA (unknown origin) at 10 uM relative to control"}, "[9]": {"biological_target": "Fibroblast growth factor receptor (Homo sapiens) (UniProt P22607+P11362+P22455+P21802)", "test": "Inhibition of FGFR (unknown origin) at 10 uM relative to control", "format": "protein assay"}, "[10]": {"biological_target": "T3, Receptor-type tyrosine-protein kinase FLT3 (Homo sapiens, UniProt P36888)", "T3 sequence (P36888 whole entry)": "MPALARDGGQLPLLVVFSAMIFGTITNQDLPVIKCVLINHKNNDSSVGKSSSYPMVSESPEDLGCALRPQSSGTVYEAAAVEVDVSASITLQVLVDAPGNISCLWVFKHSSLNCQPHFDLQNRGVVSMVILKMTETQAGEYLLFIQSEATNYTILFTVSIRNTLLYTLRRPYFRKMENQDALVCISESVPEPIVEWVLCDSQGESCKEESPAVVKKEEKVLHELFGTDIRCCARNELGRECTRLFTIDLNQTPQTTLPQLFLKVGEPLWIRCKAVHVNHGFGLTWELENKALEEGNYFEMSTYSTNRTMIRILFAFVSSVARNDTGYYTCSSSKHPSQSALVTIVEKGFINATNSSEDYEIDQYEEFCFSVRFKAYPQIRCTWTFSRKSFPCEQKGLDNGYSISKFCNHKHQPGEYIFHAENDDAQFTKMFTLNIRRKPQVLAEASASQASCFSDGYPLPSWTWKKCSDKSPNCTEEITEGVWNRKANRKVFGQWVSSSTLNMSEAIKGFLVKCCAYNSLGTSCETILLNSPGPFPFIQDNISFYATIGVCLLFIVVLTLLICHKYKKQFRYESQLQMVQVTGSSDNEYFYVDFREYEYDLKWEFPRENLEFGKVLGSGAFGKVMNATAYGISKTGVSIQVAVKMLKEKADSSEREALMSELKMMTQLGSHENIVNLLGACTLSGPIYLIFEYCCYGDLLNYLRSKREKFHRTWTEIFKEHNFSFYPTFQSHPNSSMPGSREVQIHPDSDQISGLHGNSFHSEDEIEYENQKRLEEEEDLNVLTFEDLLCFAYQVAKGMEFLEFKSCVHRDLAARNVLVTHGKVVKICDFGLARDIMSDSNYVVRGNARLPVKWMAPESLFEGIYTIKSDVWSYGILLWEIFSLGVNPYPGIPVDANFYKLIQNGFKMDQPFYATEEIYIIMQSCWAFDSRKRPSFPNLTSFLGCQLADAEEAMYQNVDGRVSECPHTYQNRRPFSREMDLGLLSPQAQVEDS", "test": "Inhibition of FLT3 (unknown origin)"}, "[11]": {"biological_target": "Maternal embryonic leucine zipper kinase (Homo sapiens) (UniProt Q14680)", "test": "Inhibition of MELK (unknown origin) at 10 uM relative to control"}, "Homo sapiens": {"species": "Homo sapiens", "test": "Inhibition of FLT (unknown origin) at 10 uM relative to control"}, "[12]": {"biological_target": "T2, High affinity nerve growth factor receptor", "test": "Inhibition of TRKA (unknown origin)"}, "[13]": {"biological_target": "Protein kinase C (PKC) (Homo sapiens) (UniProt O94806+P41743+P17252+P05129+Q05655+P05771+Q05513+Q02156+P24723+Q15139+Q04759)", "test": "Inhibition of PKC (unknown origin) at 10 uM relative to control", "format": "protein assay"}, "[14]": {"biological_target": "Receptor-type tyrosine-protein kinase FLT3 (Homo sapiens, UniProt P36888, D835Y)", "test": "Inhibition of FLT3 D835Y (unknown origin)"}, "[15]": {"biological_target": "T4, Macrophage colony-stimulating factor 1 receptor (Homo sapiens, UniProt P07333)", "T4 sequence (P07333 whole entry)": "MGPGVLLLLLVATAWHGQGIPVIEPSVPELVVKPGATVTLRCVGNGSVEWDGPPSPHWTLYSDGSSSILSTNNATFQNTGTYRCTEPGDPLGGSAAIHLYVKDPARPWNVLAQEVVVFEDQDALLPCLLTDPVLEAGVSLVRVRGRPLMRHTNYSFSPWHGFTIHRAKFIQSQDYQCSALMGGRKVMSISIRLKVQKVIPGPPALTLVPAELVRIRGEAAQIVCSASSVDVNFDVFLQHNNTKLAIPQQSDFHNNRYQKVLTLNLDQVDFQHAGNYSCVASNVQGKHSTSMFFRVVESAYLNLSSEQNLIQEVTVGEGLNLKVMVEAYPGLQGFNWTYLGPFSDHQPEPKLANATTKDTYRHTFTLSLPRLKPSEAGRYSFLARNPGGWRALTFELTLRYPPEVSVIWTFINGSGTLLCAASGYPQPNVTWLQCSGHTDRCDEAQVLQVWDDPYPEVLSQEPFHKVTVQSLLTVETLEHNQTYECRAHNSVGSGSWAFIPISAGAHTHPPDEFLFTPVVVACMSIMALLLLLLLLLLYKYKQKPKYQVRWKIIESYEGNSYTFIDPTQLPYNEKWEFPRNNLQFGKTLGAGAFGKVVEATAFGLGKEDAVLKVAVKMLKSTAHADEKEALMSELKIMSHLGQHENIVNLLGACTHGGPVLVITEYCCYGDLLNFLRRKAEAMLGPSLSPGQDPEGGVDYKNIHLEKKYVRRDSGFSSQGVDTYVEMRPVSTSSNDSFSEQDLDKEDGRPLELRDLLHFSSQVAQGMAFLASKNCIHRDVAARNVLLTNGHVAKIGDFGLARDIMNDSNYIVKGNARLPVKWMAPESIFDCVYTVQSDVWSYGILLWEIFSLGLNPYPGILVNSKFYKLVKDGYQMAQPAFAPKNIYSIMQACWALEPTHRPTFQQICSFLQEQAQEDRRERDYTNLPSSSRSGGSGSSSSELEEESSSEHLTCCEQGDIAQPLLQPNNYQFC", "test": "Inhibition of CSF1R (unknown origin)"}, "[16]": {"biological_target": "T4, Macrophage colony-stimulating factor 1 receptor", "test": "Inhibition of FMS (unknown origin)"}},
  "data": [
    {"smiles": "CNC(=O)c1ccccc1Nc1c(C(F)(F)F)cnc2[nH]c(-c3ccc(F)cc3)cc12", "values": [
      {"measurement": "inhibition", "setting": "[1]", "result": 88, "unit": "%"}
    ]},
    {"smiles": "COc1ccc(F)cc1C(=O)NCc1ccc(-c2nn(C3CCCC3)c3c(=O)[nH]nc(N)c23)cc1", "values": [
      {"measurement": "IC50", "setting": "[2]", "result": 0.0005, "unit": "µM"}
    ]},
    {"smiles": "O=c1[nH]nc(NC2CCCC2)c2nnn(Cc3cccs3)c12", "values": [
      {"measurement": "Ki", "setting": "Adenosine receptor A1", "result": 0.0467, "unit": "µM"},
      {"measurement": "Ki", "setting": "Adenosine receptor A2a", "result": 0.895, "unit": "µM"}
    ]},
    {"smiles": "COc1cncc(-c2cn(-c3c(F)ccc(NS(=O)(=O)C(C)C)c3F)nn2)c1", "values": [
      {"measurement": "EC50", "setting": "[3]", "result": 0.493, "unit": "µM"}
    ]},
    {"smiles": "C=CC(=O)N1CC[C@H](n2cc(-c3cc4ccccc4o3)c3c(N)n[nH]c(=O)c32)C1", "values": [
      {"measurement": "IC50", "setting": "[4]", "result": "< 0.01", "unit": "µM"},
      {"measurement": "IC50", "setting": "[5]", "result": "< 0.01", "unit": "µM"},
      {"measurement": "IC50", "setting": "[6]", "result": "< 0.01", "unit": "µM"},
      {"measurement": "IC50", "setting": "[7]", "result": "< 0.01", "unit": "µM"}
    ]},
    {"smiles": "CN(C)S(=O)(=O)Nc1cccc(-c2cnn(-c3ccc(C(F)(F)F)cc3)c2)c1", "values": [
      {"measurement": "inhibition", "setting": "[8]", "result": 55, "unit": "%"},
      {"measurement": "inhibition", "setting": "[9]", "result": 35, "unit": "%"},
      {"measurement": "IC50", "setting": "[10]", "result": 13.6, "unit": "µM"},
      {"measurement": "inhibition", "setting": "[11]", "result": 35, "unit": "%"},
      {"measurement": "inhibition", "setting": "Homo sapiens", "result": 45, "unit": "%"},
      {"measurement": "IC50", "setting": "[12]", "result": 5.8, "unit": "µM"},
      {"measurement": "inhibition", "setting": "[13]", "result": 35, "unit": "%"},
      {"measurement": "IC50", "setting": "[14]", "result": 1.83, "unit": "µM"}
    ]},
    {"smiles": "CN(c1ncccc1CNc1c(C#N)cnc2[nH]ccc12)S(C)(=O)=O", "values": [
      {"measurement": "inhibition", "setting": "[1]", "result": 68, "unit": "%"}
    ]},
    {"smiles": "O=C(NCc1ccc(C(F)(F)F)nc1)Nc1ccc(Oc2ncnc3[nH]ccc23)cc1", "values": [
      {"measurement": "IC50", "setting": "[15]", "result": 0.02, "unit": "µM"}
    ]},
    {"smiles": "COc1ncc(CNc2ccc(Cc3c[nH]c4ncc(C(F)(F)F)cc34)c(F)n2)cc1F", "values": [
      {"measurement": "IC50", "setting": "[16]", "result": "< 0.1", "unit": "µM"},
      {"measurement": "IC50", "setting": "[10]", "result": "< 0.1", "unit": "µM"}
    ]}
  ]
}
